Reference: patent US20250295804A1, “PEG BASED ANTI-CD47/ANIT-PD-L1 BISPECIFIC ANTIBODY-DRUG CONJUGATE” (Shenzhen Enduring Biotech, Ltd., priority 2022, published 2025)

Experiments:
BxPC-3 tumor cells = assay: FACS selective binding assay, tumor cells; format: cell-based; settings: BxPC-3, 30 min at 4° C.
Method: (§1) Briefly, freshly prepared red blood cells (from healthy donors) and BxPC-3 tumor cells (Procell, Wuhan, China) were used as target cells. […] The cells were washed at least twice with PBS and analyzed with flow cytometry after incubation.

[1] = test system: red blood cells (from healthy donors); assay: FACS selective binding assay, red blood cells; format: cell-based; settings: 30 min at 4° C.
Method: as §1

Hu5F9-G4: anti-CD47 antibody, expressed and prepared in house [reference compound]
binding to target cells (BxPC-3 tumor cells): specifically bind | binding to target cells [1]: binds with high affinity
